Measured values taken from ChEMBL document CHEMBL5126637, “Discovery of Phenolic Matrix Metalloproteinase Inhibitors by Peptide Microarray for Osteosarcoma Treatment” (J Nat Prod, 2022).
Active and inactive are the calls of the source. The calls are words filed in the database; no cut-off is given here.

Assays:
[1] = target: T1, Interstitial collagenase (Homo sapiens) (UniProt P03956); test: Inhibition of MMP1 in human U2OS cells at 5 umol/L by peptide microarray-based fluorescence assay; format: cell-based; conditions: dose 5.0 µmol/L
T1 sequence (whole entry): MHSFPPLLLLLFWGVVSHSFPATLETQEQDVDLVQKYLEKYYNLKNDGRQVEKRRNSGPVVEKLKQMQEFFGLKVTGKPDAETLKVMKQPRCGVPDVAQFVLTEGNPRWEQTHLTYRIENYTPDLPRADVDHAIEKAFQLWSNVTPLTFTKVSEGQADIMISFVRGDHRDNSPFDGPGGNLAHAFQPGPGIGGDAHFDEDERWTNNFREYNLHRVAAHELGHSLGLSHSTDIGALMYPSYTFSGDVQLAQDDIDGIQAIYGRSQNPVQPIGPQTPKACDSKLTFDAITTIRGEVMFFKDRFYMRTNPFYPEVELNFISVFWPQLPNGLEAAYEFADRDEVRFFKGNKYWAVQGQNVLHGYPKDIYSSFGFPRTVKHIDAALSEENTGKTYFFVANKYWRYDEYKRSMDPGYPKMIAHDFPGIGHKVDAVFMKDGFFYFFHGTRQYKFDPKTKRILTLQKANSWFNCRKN

[2] = target: T2, Matrix metalloproteinase-9 (Homo sapiens, UniProt P14780); test: Inhibition of MMP9 in human U2OS cells at 5 umol/L by peptide microarray-based fluorescence assay; format: cell-based; conditions: dose 5.0 µmol/L
[3] = target: T3, Collagenase 3 (Homo sapiens, UniProt P45452); test: Inhibition of MMP13 in human U2OS cells at 5 umol/L by peptide microarray-based fluorescence assay; format: cell-based; conditions: dose 5.0 µmol/L
[4] = target: T4, Stromelysin-1 (Homo sapiens, UniProt P08254); test: Inhibition of MMP3 in human U2OS cells at 5 umol/L by peptide microarray-based fluorescence assay; format: cell-based; conditions: dose 5.0 µmol/L
Target sequence in this assay (P08254 100-477 limits assumed): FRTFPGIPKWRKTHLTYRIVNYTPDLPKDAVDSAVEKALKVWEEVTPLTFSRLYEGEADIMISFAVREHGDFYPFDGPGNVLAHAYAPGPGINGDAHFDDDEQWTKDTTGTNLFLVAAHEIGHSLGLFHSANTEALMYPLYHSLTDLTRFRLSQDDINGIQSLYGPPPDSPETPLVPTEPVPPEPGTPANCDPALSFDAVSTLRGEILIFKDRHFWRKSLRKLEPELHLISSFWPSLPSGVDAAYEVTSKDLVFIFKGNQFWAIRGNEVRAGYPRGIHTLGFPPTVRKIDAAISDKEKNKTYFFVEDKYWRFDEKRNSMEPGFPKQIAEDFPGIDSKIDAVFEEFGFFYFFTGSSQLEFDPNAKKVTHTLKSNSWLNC

[5] = target: T5, 72 kDa type IV collagenase (Homo sapiens, UniProt P08253); test: Inhibition of MMP2 in human U2OS cells at 5 umol/L by peptide microarray-based fluorescence assay; format: cell-based; conditions: dose 5.0 µmol/L
Target sequence in this assay (P08253 110-660 limits assumed): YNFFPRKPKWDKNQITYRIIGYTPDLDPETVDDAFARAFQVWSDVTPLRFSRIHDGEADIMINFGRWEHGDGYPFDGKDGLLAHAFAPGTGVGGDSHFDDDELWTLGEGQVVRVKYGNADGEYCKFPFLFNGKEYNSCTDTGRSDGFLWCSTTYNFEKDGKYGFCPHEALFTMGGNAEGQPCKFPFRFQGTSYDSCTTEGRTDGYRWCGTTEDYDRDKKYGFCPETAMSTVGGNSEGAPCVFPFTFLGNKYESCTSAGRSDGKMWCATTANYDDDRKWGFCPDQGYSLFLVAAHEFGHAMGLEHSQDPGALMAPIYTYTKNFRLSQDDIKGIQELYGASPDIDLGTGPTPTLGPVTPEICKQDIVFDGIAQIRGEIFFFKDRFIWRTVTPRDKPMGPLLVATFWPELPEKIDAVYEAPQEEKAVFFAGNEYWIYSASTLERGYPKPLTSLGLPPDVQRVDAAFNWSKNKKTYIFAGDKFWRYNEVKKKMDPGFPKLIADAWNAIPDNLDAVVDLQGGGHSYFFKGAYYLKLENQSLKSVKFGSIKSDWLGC

[6] = target: T6, Matrilysin (Homo sapiens) (UniProt P09237); test: Inhibition of MMP7 in human U2OS cells at 5 umol/L by peptide microarray-based fluorescence assay; format: cell-based; conditions: dose 5.0 µmol/L
T6 sequence (whole entry): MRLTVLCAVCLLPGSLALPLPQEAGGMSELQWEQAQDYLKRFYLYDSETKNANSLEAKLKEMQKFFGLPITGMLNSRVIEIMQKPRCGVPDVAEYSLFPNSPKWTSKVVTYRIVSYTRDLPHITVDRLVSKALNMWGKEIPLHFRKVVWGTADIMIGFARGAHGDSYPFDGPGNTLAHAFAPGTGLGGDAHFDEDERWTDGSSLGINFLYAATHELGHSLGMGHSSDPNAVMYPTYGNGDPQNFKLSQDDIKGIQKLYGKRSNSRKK

[7] = Toxicity in human HCT-116 cells assessed as cell viability at 2.5 umol/L incubated for 24 hrs by MTT assay relative to control; format: cell-based; conditions: dose 2.5 µmol/L, read-out: Activity
[8] = Toxicity in Kunming mouse assessed as induction of adverse effect or tissue damage in major organs measured after 14 days; conditions: in vivo, 336 h, time 14 day
[9] = Toxicity in human MCF7 cells assessed as cell viability at 2.5 umol/L incubated for 24 hrs by MTT assay relative to control; format: cell-based; conditions: dose 2.5 µmol/L, read-out: Activity
[10] = Toxicity in Kunming mouse assessed as effect on body weight changes measured after 14 days; conditions: in vivo, 336 h, time 14 day
[11] = Toxicity in human HL7702 cells assessed as cell viability at 2.5 umol/L incubated for 24 hrs by MTT assay relative to control; format: cell-based, L02; conditions: dose 2.5 µmol/L, read-out: Activity
[12] = target: T3, Collagenase 3; test: Inhibition of MMP13 in human U2OS cells at 1 umol/L by peptide microarray-based fluorescence assay; format: cell-based; conditions: dose 1.0 µmol/L
[13] = test system: U2OS; test: Antitumor activity against human U2OS cells xenografted in NOD/SCID mouse assessed as time duration with 100% survival with at 34 ug, iv dosed once every 2 days for 6 days successively relative to control; format: functional; conditions: dose 34 µg, time 6 day
[14] = Toxicity in human U2OS cells assessed as cell viability at 2.5 umol/L incubated for 24 hrs by MTT assay relative to control; format: cell-based; conditions: dose 2.5 µmol/L, read-out: Activity
[15] = target: T3, Collagenase 3; test: Inhibition of MMP13 in human U2OS cells by peptide microarray-based fluorescence assay; format: cell-based
[16] = test system: U2OS; test: Inhibition of cell migration of human U2OS cells at 2.5 umol/L incubated for 24 hrs by would healing assay; format: functional, cell-based; conditions: dose 2.5 µmol/L
[17] = Toxicity in human NCM460 cells assessed as cell viability at 2.5 umol/L incubated for 24 hrs by MTT assay relative to control; format: cell-based; conditions: dose 2.5 µmol/L, read-out: Activity
[18] = test system: U2OS; test: Antitumor activity against human U2OS cells xenografted in NOD/SCID mouse assessed as inhibition of distant organ metastasis at 34 ug, iv dosed once every 2 days for 6 days successively relative to control; format: functional, organism-based; conditions: dose 34.0 µg, time 6.0 day
[19] = test system: U2OS; test: Antitumor activity against human U2OS cells xenografted in NOD/SCID mouse assessed as inhibition of growth of both primary and metastatic tumors at 34 ug, iv dosed once every 2 days for 6 days successively relative to control; format: functional, organism-based; conditions: dose 34.0 µg, time 6.0 day
[20] = test system: U2OS; test: Antitumor activity against human U2OS cells xenografted in NOD/SCID mouse assessed as inhibition of tumor growth at 34 ug, iv dosed once every 2 days for 6 days successively relative to control; format: functional; conditions: dose 34 µg, time 6 day
[21] = Toxicity in human HEK293T cells assessed as cell viability at 2.5 umol/L incubated for 24 hrs by MTT assay relative to control; format: cell-based, HEK-293T; conditions: dose 2.5 µmol/L, read-out: Activity
[22] = Toxicity in human MDA-MB-231 cells assessed as cell viability at 2.5 umol/L incubated for 24 hrs by MTT assay relative to control; format: cell-based; conditions: dose 2.5 µmol/L, read-out: Activity
[23] = Toxicity in Kunming mouse assessed as effect on blood components measured after 14 days; conditions: in vivo, 336 h, time 14 day
[24] = target: T7, Matrilysin (Homo sapiens, UniProt P09237); test: Inhibition of MMP7 in human U2OS cells by peptide microarray-based fluorescence assay; format: cell-based
T7 sequence (P09237 whole entry): T6 sequence (whole entry)

[25] = target: T2, Matrix metalloproteinase-9; test: Inhibition of MMP9 in human U2OS cells at 1 umol/L by peptide microarray-based fluorescence assay; format: cell-based; conditions: dose 1.0 µmol/L
[26] = target: T1, Interstitial collagenase (Homo sapiens); test: Inhibition of MMP1 in human U2OS cells at 1 umol/L by peptide microarray-based fluorescence assay; format: cell-based; conditions: dose 1.0 µmol/L
[27] = target: T2, Matrix metalloproteinase-9; test: Inhibition of MMP9 in human U2OS cells by peptide microarray-based fluorescence assay; format: cell-based
[28] = test system: U2OS; test: Antitumor activity against human U2OS cells xenografted in NOD/SCID mouse assessed as inhibition of growth of both primary and metastatic tumors at 18 ug, iv dosed once every 2 days for 6 days successively relative to control; format: functional, organism-based; conditions: dose 18.0 µg, time 6.0 day
[29] = test system: U2OS; test: Antitumor activity against human U2OS cells xenografted in NOD/SCID mouse assessed as inhibition of distant organ metastasis at 18 ug, iv dosed once every 2 days for 6 days successively relative to control; format: functional, organism-based; conditions: dose 18.0 µg, time 6.0 day
[30] = target: T4, Stromelysin-1; test: Inhibition of MMP3 in human U2OS cells at 1 umol/L by peptide microarray-based fluorescence assay; format: cell-based; conditions: dose 1.0 µmol/L
Target sequence in this assay (P08254 100-477 limits assumed): as the sequence (P08254 100-477 limits assumed) above

[31] = test system: U2OS; test: Antitumor activity against human U2OS cells xenografted in NOD/SCID mouse assessed as inhibition of tumor growth at 18 ug, iv dosed once every 2 days for 6 days successively relative to control; format: functional; conditions: dose 18 µg, time 6 day
[32] = test system: U2OS; test: Antitumor activity against human U2OS cells xenografted in NOD/SCID mouse assessed as inhibition of tumor growth at 100 mg/kg, po dosed once every 2 days for 2 weeks relative to control; format: functional; conditions: 1008 h, time 6 weeks, read-out: TGI
[33] = target: T5, 72 kDa type IV collagenase; test: Inhibition of MMP2 in human U2OS cells at 1 umol/L by peptide microarray-based fluorescence assay; format: cell-based; conditions: dose 1.0 µmol/L
Target sequence in this assay (P08253 110-660 limits assumed): as the sequence (P08253 110-660 limits assumed) above

[34] = test system: U2OS; test: Antitumor activity against human U2OS cells xenografted in NOD/SCID mouse assessed as time duration with 100% survival with at 18 ug, iv dosed once every 2 days for 6 days successively relative to control; format: functional; conditions: dose 18 µg, time 6 day
[35] = target: T5, 72 kDa type IV collagenase; test: Inhibition of MMP2 in human U2OS cells by peptide microarray-based fluorescence assay; format: cell-based
Target sequence in this assay (P08253 whole entry): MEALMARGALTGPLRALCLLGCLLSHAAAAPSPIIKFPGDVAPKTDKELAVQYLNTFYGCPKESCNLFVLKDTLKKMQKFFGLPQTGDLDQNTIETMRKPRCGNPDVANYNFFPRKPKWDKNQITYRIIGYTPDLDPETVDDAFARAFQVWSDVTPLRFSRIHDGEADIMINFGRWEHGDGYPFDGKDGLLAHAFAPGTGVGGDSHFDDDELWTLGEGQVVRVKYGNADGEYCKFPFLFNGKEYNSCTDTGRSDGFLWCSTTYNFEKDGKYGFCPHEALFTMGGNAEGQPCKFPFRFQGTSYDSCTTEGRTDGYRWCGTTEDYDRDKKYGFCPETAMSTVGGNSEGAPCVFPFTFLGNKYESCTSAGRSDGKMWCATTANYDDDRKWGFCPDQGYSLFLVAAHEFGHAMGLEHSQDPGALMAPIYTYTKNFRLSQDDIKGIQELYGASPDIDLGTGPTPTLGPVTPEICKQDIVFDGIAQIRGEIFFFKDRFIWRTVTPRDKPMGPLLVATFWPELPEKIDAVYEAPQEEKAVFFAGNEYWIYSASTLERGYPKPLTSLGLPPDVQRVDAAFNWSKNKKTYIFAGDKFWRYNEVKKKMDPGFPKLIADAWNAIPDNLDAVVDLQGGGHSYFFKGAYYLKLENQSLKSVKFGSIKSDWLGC

[36] = target: T8, Interstitial collagenase (Homo sapiens, UniProt P03956); test: Inhibition of MMP1 in human U2OS cells by peptide microarray-based fluorescence assay; format: cell-based
T8 sequence (P03956 whole entry): T1 sequence (whole entry)

[37] = target: T6, Matrilysin (Homo sapiens); test: Inhibition of MMP7 in human U2OS cells at 1 umol/L by peptide microarray-based fluorescence assay; format: cell-based; conditions: dose 1.0 µmol/L
[38] = target: T4, Stromelysin-1; test: Inhibition of MMP3 in human U2OS cells by peptide microarray-based fluorescence assay; format: cell-based
Target sequence in this assay (P08254 whole entry): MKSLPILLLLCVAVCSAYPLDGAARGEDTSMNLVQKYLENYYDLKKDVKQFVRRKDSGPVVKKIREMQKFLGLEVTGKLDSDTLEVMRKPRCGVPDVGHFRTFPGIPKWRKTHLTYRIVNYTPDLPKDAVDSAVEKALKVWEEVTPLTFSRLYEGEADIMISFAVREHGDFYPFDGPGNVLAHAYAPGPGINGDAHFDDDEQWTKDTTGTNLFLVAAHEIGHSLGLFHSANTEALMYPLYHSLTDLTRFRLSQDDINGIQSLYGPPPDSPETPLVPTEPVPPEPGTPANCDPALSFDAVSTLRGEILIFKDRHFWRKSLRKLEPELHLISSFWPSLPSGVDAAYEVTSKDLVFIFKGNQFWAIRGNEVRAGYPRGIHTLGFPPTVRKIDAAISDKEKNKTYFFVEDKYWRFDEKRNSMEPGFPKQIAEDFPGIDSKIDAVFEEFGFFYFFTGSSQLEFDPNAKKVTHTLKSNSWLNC

[39] = test system: U2OS; test: Antitumor activity against human U2OS cells xenografted in NOD/SCID mouse assessed as inhibition of distant organ metastasis at 30 ug, iv dosed once every 2 days for 6 days successively relative to control; format: functional, organism-based; conditions: dose 30.0 µg
[40] = test system: U2OS; test: Antitumor activity against human U2OS cells xenografted in NOD/SCID mouse assessed as inhibition of growth of both primary and metastatic tumors at 30 ug, iv dosed once every 2 days for 6 days successively relative to control; format: functional, organism-based; conditions: dose 30.0 µg, time 6.0 day
[41] = test system: U2OS; test: Antitumor activity against human U2OS cells xenografted in NOD/SCID mouse assessed as time duration with 100% survival with at 30 ug, iv dosed once every 2 days for 6 days successively relative to control; format: functional; conditions: dose 30 µg, time 6 day
[42] = test system: U2OS; test: Antitumor activity against human U2OS cells xenografted in NOD/SCID mouse assessed as inhibition of tumor growth at 30 ug, iv dosed once every 2 days for 6 days successively relative to control; format: functional; conditions: dose 30 µg, time 6 day

T2 sequence (P14780 whole entry): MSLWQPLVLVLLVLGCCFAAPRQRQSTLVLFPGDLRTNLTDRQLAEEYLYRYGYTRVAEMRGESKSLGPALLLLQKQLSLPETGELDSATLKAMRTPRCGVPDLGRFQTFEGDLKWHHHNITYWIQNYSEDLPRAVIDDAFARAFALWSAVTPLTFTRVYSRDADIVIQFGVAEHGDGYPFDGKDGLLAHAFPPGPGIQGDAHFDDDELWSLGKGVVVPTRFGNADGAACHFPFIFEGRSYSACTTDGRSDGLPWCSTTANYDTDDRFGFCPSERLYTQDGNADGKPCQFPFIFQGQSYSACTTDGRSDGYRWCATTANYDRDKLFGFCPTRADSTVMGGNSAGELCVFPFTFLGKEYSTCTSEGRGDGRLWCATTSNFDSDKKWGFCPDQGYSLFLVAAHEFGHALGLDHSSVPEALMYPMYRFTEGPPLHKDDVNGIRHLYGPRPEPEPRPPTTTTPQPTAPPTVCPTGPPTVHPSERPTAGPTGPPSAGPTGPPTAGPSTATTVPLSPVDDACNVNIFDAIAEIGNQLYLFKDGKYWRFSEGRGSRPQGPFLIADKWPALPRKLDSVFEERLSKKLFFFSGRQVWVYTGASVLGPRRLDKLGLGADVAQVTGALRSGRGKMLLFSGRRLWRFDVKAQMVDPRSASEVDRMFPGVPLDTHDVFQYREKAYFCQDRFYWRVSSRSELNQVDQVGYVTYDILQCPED

SMILES	inhibition [1]	inhibition [2]	inhibition [3]	inhibition [4]	inhibition [5]	inhibition [6]	viability at 24 h, 2.5 µM [7]	Activity [8]	viability at 24 h, 2.5 µM [9]	Activity [10]	viability at 24 h, 2.5 µM [11]	viability at 24 h, 2.5 µM [14]	inhibition [16]	viability at 24 h, 2.5 µM [17]	viability at 24 h, 2.5 µM [21]	viability at 24 h, 2.5 µM [22]	Activity [23]	inhibition [26]	further results
C=CC(C)(C)c1cc(/C=C/C(=O)c2ccc(O)cc2)c(OC)cc1O	> 50%																		
O=C1C[C@@H](c2ccc(O)cc2)Oc2cc(O)ccc21	> 50%	> 50%	> 50%	> 50%	> 50%	> 50%													
COc1cc(C2Oc3ccc([C@H]4Oc5cc(O)cc(O)c5C(=O)[C@@H]4O)cc3OC2CO)ccc1O (some centres not stated)		> 50%	> 50%				> 90%	Non-Toxic	> 90%	Non-Toxic	> 90%	> 90%	Active	> 90%	> 90%	> 90%	Non-Toxic		inhibition [12]: Active; Survival [13]: 43 days; IC50 [15]: 250 nM; inhibition [18]: Active; inhibition [19]: Active; TGI [20]: 60%
O=C(O)[C@H]1O[C@@H](Oc2cc3oc(-c4ccc(O)cc4)cc(=O)c3c(O)c2O)[C@H](O)[C@@H](O)[C@@H]1O	> 50%	> 50%	> 50%		> 50%	> 50%													
COc1ccc(-c2cc(=O)c3c(OC)c(OC)c(OC)cc3o2)cc1OC	> 50%		> 50%	> 50%	> 50%	> 50%													
O=C(/C=C/c1ccc(O)cc1)c1ccc(O)cc1O [ISOLIQUIRITIGENIN]	> 50%	> 50%	> 50%	> 50%	> 50%	> 50%	> 90%	Non-Toxic	> 90%	Non-Toxic	> 90%	> 90%	Active	> 90%	> 90%	> 90%	Non-Toxic	Active	IC50 [24]: 8 nM; inhibition [25]: Active; IC50 [27]: 10 nM; inhibition [28]: Active; inhibition [12]: Active; inhibition [29]: Active; inhibition [30]: Active; TGI [31]: 80%; inhibition in vivo at 100 mg/kg [32]: 72%; inhibition [33]: Active; IC50 [15]: 14 nM; Survival [34]: 70 days; IC50 [35]: 10 nM; IC50 [36]: 16 nM; inhibition [37]: Active; IC50 [38]: 81 nM
CNC(=O)[C@@H](NC(=O)[C@H](CC(C)C)[C@H](O)C(=O)NO)C(C)(C)C																		Active	
O=c1c2cc(O)c(O)cc2oc2cc(O)c([C@@H]3O[C@H](CO)[C@@H](O)[C@H](O)[C@H]3O)c(O)c12 [MANGIFERIN]	> 50%	> 50%					> 90%	Non-Toxic	> 90%	Non-Toxic	> 90%	> 90%	Active	> 90%	> 90%	> 90%	Non-Toxic	Active	inhibition [25]: Active; IC50 [27]: 250 nM; inhibition [39]: Active; inhibition [40]: Active; Survival [41]: 41 days; TGI [42]: 35%
COc1ccc(-c2coc3cc(O[C@@H]4O[C@H](CO)[C@@H](O)[C@H](O)[C@H]4O)ccc3c2=O)cc1		> 50%																	
